From PMC9964244, “Effects of Dimerization, Dendrimerization, and Chirality in p-BthTX-I Peptide Analogs on the Antibacterial Activity and Enzymatic Inhibition of the SARS-CoV-2 PL^pro Protein” (Pharmaceutics, 2023)
Values after ≈ are worked out from the molar mass of the structure shown. Values joined by “and” are separate entries in the source; they are usually repeats but may differ in a detail not shown here. Identical values can stand only once. Bridge positions count the residues as written; N and C are the ends. Peptide text beside a SMILES is read from it. I, II: the chains in the order shown.

Legend:
[1] = Carboxyfluorescein leakage, vesicle permeabilization; details: 80% POPE / 20% POPG vesicles; peptide 50 µM
Procedure: The permeabilization of lipid vesicles containing carboxyfluorescein was carried out using a spectrofluorometer model Fluorolog-3 FL3-122 from Horiba Jobin Yvon (Newark, NJ, USA) (dimers and tetramers) or in a spectrofluorometer model RF-1501 Shimadzu (Kyoto, Japan) (monomer). For RF-1501, the quantification of the fluorescence intensity was performed every 20 s. Two vesicle compositions were used: (1) 80% 1-palmitoyl-2-oleoyl-sn-glycero-3-phosphoethanolamine (POPE) and 20% 1-palmitoyl-2-oleoyl-sn-glycero- 3-phospho-(10-rac-glycerol) (POPG); and (2) 95% 1-palmitoyl-2-oleoyl-sn-glycero-3-phosphocholine (POPC) and 5% POPG. The percentage of leakage was obtained through the following equation:% release = (Fmeasured − Finitial)/(Ffinal − Finitial) × 100, where Ffinal is the average fluorescence value obtained after the addition of Triton, Finitial is the average of the initial values of the run before the addition of the peptide, and Fmeasured are the fluorescence values obtained at each point of the experiment.
Here, we evaluated two systems of membrane mimetics, including vesicles with a composition of 80% POPE and 20% POPG, and another with 95% POPC and 5% POPG. The first is widely used as a model of bacterial membranes, specifically of E. coli membrane. Membranes constituting POPC and POPG were used to mimic mammalian membranes due to the presence of choline-containing lipids in animal membranes.

SARS-CoV-2 PL^pro = target: T1, SARS-CoV-2 PL^pro (Severe acute respiratory syndrome coronavirus 2, UniProt P0DTD1); details: PL^pro from SARS-CoV-2, ref 19 (Freire et al., 2021), cited from earlier work
T1 construct: made in house
Procedure: Table 3 PL^pro activity by peptide analogs of p-BThTX-I at the concentration of 10 μM and IC50 values. Representative concentration–response inhibition curves against PL^pro from SARS-CoV-2 are presented in the Supplementary Material (Figure S7). | column: Inhibition (%) at 10 µM; IC50 μM

SARS-CoV-2 = details: Vero cells; cited from earlier work
Excerpt: In December 2019, the first case of viral infection with a new coronavirus was reported in China, which was later named severe acute respiratory syndrome coronavirus 2 (SARS-CoV-2), and the disease caused by this was named coronavirus-2019 or COVID-19 by the WHO. This disease has taken on great proportions, causing a pandemic scenario and great global concern. Even with the improvements in disease control, there is still a need for new, specific antiviral therapeutic options. As antimicrobial peptides also have antiviral action, the L-dimer, D-dimer and L-tetramer, in addition to ...

A. baumannii ATCC 19606 = assay: MIC/MBC, broth microdilution and subculture on CA-MH agar; assay type: cell-based, Acinetobacter baumannii; details: triplicate, mode
Procedure: (§1) Bacterial isolates from the American Type Culture Collection (ATCC) were obtained from the Collection of Reference Bacteria on Health Surveillance, Oswaldo Cruz Foundation (FIOCRUZ) after phenotypic and molecular quality control and were registered at SISGEN under the number ADB556B. The minimum inhibitory concentration (MIC) was determined as previously described by Santos-Filho et al., 2021 [17], using the broth microdilution method. The MIC was the lowest concentration that inhibited microbial growth. […] MBC was defined as the lowest peptide concentration with no visible growth on the plate. […] The assay was performed in triplicate, and the values represent the mode of the obtained results.
(§2) Thus, to assess the relevance of the antimicrobial effect of p-Bth analogs, their Minimum Inhibitory Concentration (MIC) and Minimum Bactericidal Concentration (MBC) were analyzed against relevant bacteria. The evaluated strains were the Gram-positives: S. aureus ATCC 25923, S. epidermidis ATCC 35984, E. faecalis ATCC 29212, and E. faecium ATCC […] (Table 1); and the Gram-negatives: K. pneumoniae ATCC 700603, E. coli ATCC 25922, A. baumannii ATCC 19606, and P. aeruginosa ATCC 27853 (Table 2).

E. faecium ATCC 700221 = assay: as above; assay type: cell-based, Enterococcus faecium; design: key to Act (antibacterial activity): Bc, bactericidal; Bs, bacteriostatic
Procedure: as §1, §2

[2] = system: K. pneumoniae ATCC 700603; assay: as above; assay type: cell-based, Klebsiella pneumoniae; details: broth microdilution, triplicate, mode
Procedure: as §1, §2

S. aureus ATCC 25923 = assay: as above; assay type: cell-based, Staphylococcus aureus; design: key to Act (antibacterial activity): Bc, bactericidal; Bs, bacteriostatic
Procedure: as §1, §2

P. aeruginosa ATCC 27853 = assay: as above; assay type: cell-based, Pseudomonas aeruginosa; details: broth microdilution, triplicate, mode
Procedure: as §1, §2

E. coli ATCC 25922 = assay: as above; assay type: cell-based; design: key to Act (antibacterial activity): Bc, bactericidal; Bs, bacteriostatic
Procedure: as §1, §2

[3] = system: S. epidermidis ATCC 35984; assay: as above; assay type: cell-based; design: key to Act (antibacterial activity): Bc, bactericidal; Bs, bacteriostatic
Procedure: as §1, §2

E. faecalis ATCC 29212 = assay: as above; assay type: cell-based; design: key to Act (antibacterial activity): Bc, bactericidal; Bs, bacteriostatic
Procedure: as §1, §2

erythrocytes = system: erythrocytes; design: method as in earlier work; details: at a concentration of 512 µg/mL; ref 17 (Santos-Filho et al., 2021); cited from earlier work
[4] = MBC/MIC ratio >4 suggests bacteriostatic
[5] = broth microdilution, triplicate, mode
[6] = subculture on CA-MH agar, 37 °C, 24 h, triplicate, mode

CC(C)C[C@H](NC(=O)[C@H](Cc1c[nH]cn1)NC(=O)[C@H](Cc1ccc(O)cc1)NC(=O)[C@H](CCCNC(=N)N)NC(=O)[C@H](Cc1ccc(O)cc1)NC(=O)[C@H](CCCCN)NC(=O)[C@@H](N)CCCCN)C(=O)N[C@@H](CCCCN)C(=O)N1CCC[C@H]1C(=O)N[C@@H](Cc1ccccc1)C(=O)NCCCC[C@H](NC(=O)[C@H](Cc1ccccc1)NC(=O)[C@@H]1CCCN1C(=O)[C@H](CCCCN)NC(=O)[C@H](CC(C)C)NC(=O)[C@H](Cc1c[nH]cn1)NC(=O)[C@H](Cc1ccc(O)cc1)NC(=O)[C@H](CCCNC(=N)N)NC(=O)[C@H](Cc1ccc(O)cc1)NC(=O)[C@H](CCCCN)NC(=O)[C@@H](N)CCCCN)C(N)=O [L-dimer, [des-Cys^11,Lys^12,Lys^13-(p-BthTX-I)2K]] (I: H-KKYRYHLKPFK-NH2 / II: H-KKYRYHLKPF; amide I:11-II:C; N-terminus assumed)
carboxyfluorescein leakage, maximum percentage [1]: 15% | Inhibition (%) at 10 µM (SARS-CoV-2 PL^pro; peptide 10 µM): 98.05 ± 1.62% | IC50 (SARS-CoV-2 PL^pro): 2400 ± 100 nM | percentage inhibition of SARS-CoV-2 infection (SARS-CoV-2): 27% | MIC (A. baumannii ATCC 19606; broth microdilution): 89 µM and 256 μg/mL | MBC (A. baumannii ATCC 19606; subculture on CA-MH agar, 37 °C, 24 h): >512 µg/mL | Act (antibacterial activity) (E. faecium ATCC 700221; [4]): Bs | MIC (E. faecium ATCC 700221; [5]): 16 μg/mL and 5 µM | MBC (E. faecium ATCC 700221; [6]): >64 µg/mL | MIC [2]: >128 μg/mL and >44 µM | Act (antibacterial activity) (S. aureus ATCC 25923; [4]): Bc | MIC (S. aureus ATCC 25923; [5]): 32 μg/mL and 11 µM | MBC (S. aureus ATCC 25923; [6]): 128 µg/mL (≈ 44.6 µM) | MIC (P. aeruginosa ATCC 27853): >512 μg/mL and >178 µM | Act (antibacterial activity) (E. coli ATCC 25922; [4]): Bc | MIC (E. coli ATCC 25922; [5]): 32 μg/mL and 11 µM | MBC (E. coli ATCC 25922; [6]): 64 µg/mL (≈ 22.3 µM) | Act (antibacterial activity) [3, 4]: Bc | MIC [3, 5]: 8 μg/mL and 2 µM | MBC [3, 6]: 16 µg/mL (≈ 5.58 µM) | Act (antibacterial activity) (E. faecalis ATCC 29212; [4]): Bc | MIC (E. faecalis ATCC 29212; [5]): 22 µM and 64 μg/mL | MBC (E. faecalis ATCC 29212; [6]): 128 µg/mL (≈ 44.6 µM) | hemolysis rate (erythrocytes): below 5%
